Test results published in ChEMBL document CHEMBL2157897, “Meso-tetrakis(p-sulfonatophenyl)N-confused porphyrin tetrasodium salt: a potential sensitizer for photodynamic therapy” (J Med Chem, 2012).
Active and inactive are the calls of the source. The calls are words filed in the database; no cut-off is given here.

Key:
HeLa [1] = assay: Cytotoxicity against human HeLa cells assessed as cell viability at 10 to 50 uM after 24 hrs by MTT assay in absence of light; type: cell-based
MIA PaCa-2 [2] = assay: Photocytotoxicity against human MIAPaCa2 cells preincubated for 1 hr prior to illumination measured after 24 hrs post illumination by MTT assay; type: functional, cell-based
SiHa [3] = assay: Cytotoxicity against human SiHa cells assessed as cell viability at 10 to 50 uM after 24 hrs by MTT assay in absence of light; type: cell-based
HeLa [4] = assay: Photocytotoxicity against human HeLa cells preincubated for 1 hr prior to illumination measured after 24 hrs post illumination by MTT assay; type: functional, cell-based
[5] = Photocytotoxicity against human SCC131 cells preincubated for 1 hr prior to illumination measured after 24 hrs post illumination by MTT assay; type: functional, cell-based
MDA-MB-231 [6] = assay: Induction of apoptosis in human MDA-MB-231 cells at 12 uM after 1 hr by annexin V-FITC/propidium iodide staining based flow cytometry in absence of light; type: cell-based; details: mda-mb-231, 1 h
MDA-MB-231 [7] = assay: Induction of ROS generation in human MDA-MB-231 cells using CM-H2DCFDA as probe after 24 hrs post photoirradiation by FACS flow cytometry; type: functional, cell-based
HCT-116 [8] = assay: Cytotoxicity against human HCT116 cells assessed as cell viability at 10 to 50 uM after 24 hrs by MTT assay in absence of light; type: cell-based; details: hct-116, 24 h
SiHa [9] = assay: Photocytotoxicity against human SiHa cells preincubated for 1 hr prior to illumination measured after 24 hrs post illumination by MTT assay; type: functional, cell-based
MDA-MB-231 [10] = assay: Induction of apoptosis in human MDA-MB-231 cells assessed as early apoptotic cells at 6 uM preincubated for 1 hr followed by photoirradiation by annexin V-FITC/propidium iodide staining based flow cytometry (reference value: 3.5 +/- 0.41 %); type: functional
MDA-MB-231 [11] = assay: Induction of apoptosis in human MDA-MB-231 cells assessed as decrease in mitochondrial membrane potential at 12 uM preincubated for 1 hr followed by photoirradiation measured after 24 hrs by JC1 staining based fluorescence microscopy (reference value: 12.1 +/- 4.9 %); type: functional; design: scale not given: the % may be the effect or the level left
MCF7 [12] = assay: Photocytotoxicity against human MCF7 cells preincubated for 1 hr prior to illumination measured after 24 hrs post illumination by MTT assay; type: functional, cell-based
MDA-MB-231 [13] = assay: Ratio of IC50 for human HeLa cells to IC50 for human MDA-MB-231 cells; type: functional
MDA-MB-231 [14] = assay: Induction of apoptosis in human MDA-MB-231 cells assessed as PARP cleavage at 12 uM after 1 hr by immunoblotting in absence of light; type: cell-based; details: mda-mb-231, 1 h
[15] = Cytotoxicity against human SCC172 cells assessed as cell viability at 10 to 50 uM after 24 hrs by MTT assay in absence of light; type: cell-based; details: scc172, 24 h
MDA-MB-231 [16] = assay: Induction of apoptosis in human MDA-MB-231 cells assessed as decrease in mitochondrial membrane potential at 6 uM preincubated for 1 hr followed by photoirradiation measured after 24 hrs by JC1 staining based fluorescence microscopy (reference value: 12.1 +/- 4.9 %); type: functional; design: scale not given: the % may be the effect or the level left
MDA-MB-231 [17] = assay: Induction of apoptosis in human MDA-MB-231 cells assessed as chromatin condensation preincubated for 1 hr followed by photoirradiation measured after 24 hrs by Hoechst staining based fluorescence microscopy; type: functional, cell-based
MDA-MB-231 [18] = assay: Induction of apoptosis in human MDA-MB-231 cells assessed as chromatin condensation at 6 uM preincubated for 1 hr followed by photoirradiation measured after 24 hrs by Hoechst staining based fluorescence microscopy (reference value: 10.4 +/- 1.5 %); type: functional
[19] = Photocytotoxicity against human SCC172 cells preincubated for 1 hr prior to illumination measured after 24 hrs post illumination by MTT assay; type: functional, cell-based
MDA-MB-231 [20] = assay: Induction of apoptosis in human MDA-MB-231 cells assessed as chromatin condensation at 12 uM preincubated for 1 hr followed by photoirradiation measured after 24 hrs by Hoechst staining based fluorescence microscopy (reference value: 10.4 +/- 1.5 %); type: functional
MCF7 [21] = assay: Cytotoxicity against human MCF7 cells assessed as cell viability at 10 to 50 uM after 24 hrs by MTT assay in absence of light; type: cell-based; details: mcf7, 24 h
MDA-MB-231 [22] = assay: Induction of ROS generation in human MDA-MB-231 cells using CM-H2DCFDA as probe at 12 uM after 24 hrs post photoirradiation by FACS flow cytometry (reference value: 13.7 +/- 2.3 %); type: functional
MDA-MB-231 [23] = assay: Induction of apoptosis in human MDA-MB-231 cells assessed as early apoptotic cells at 12 uM preincubated for 1 hr followed by photoirradiation by annexin V-FITC/propidium iodide staining based flow cytometry (reference value: 3.5 +/- 0.41 %); type: functional
MDA-MB-231 [24] = assay: Induction of apoptosis in human MDA-MB-231 cells assessed as PARP cleavage at 6 and 12 uM preincubated for 1 hr followed by photoirradiation by immunoblotting; type: functional, cell-based
MDA-MB-231 [25] = assay: Induction of ROS generation in human MDA-MB-231 cells using CM-H2DCFDA as probe at 6 uM after 24 hrs post photoirradiation by FACS flow cytometry (reference value: 13.7 +/- 2.3 %); type: functional
HCT-116 [26] = assay: Photocytotoxicity against human HCT116 cells preincubated for 1 hr prior to illumination measured after 24 hrs post illumination by MTT assay; type: functional, cell-based
[27] = Cytotoxicity against human SCC131 cells assessed as cell viability at 10 to 50 uM after 24 hrs by MTT assay in absence of light; type: cell-based; details: scc131, 24 h
MIA PaCa-2 [28] = assay: Cytotoxicity against human MIAPaCa2 cells assessed as cell viability at 10 to 50 uM after 24 hrs by MTT assay in absence of light; type: cell-based; details: mia paca-2, 24 h
MDA-MB-231 [29] = assay: Cytotoxicity against human MDA-MB-231 cells assessed as cell viability at 10 to 50 uM after 24 hrs by MTT assay in absence of light; type: cell-based; details: mda-mb-231, 24 h
MDA-MB-231 [30] = assay: Photocytotoxicity against human MDA-MB-231 cells preincubated for 1 hr prior to illumination measured after 24 hrs post illumination by MTT assay; type: functional, cell-based

**Q.** What does the source list for `O=S(=O)([O-])c1ccc(-c2c3cc(c(-c4ccc(S(=O)(=O)[O-])cc4)c4ccc([nH]4)c(-c4ccc(S(=O)(=O)[O-])cc4)c4nc(c(-c5ccc(S(=O)(=O)[O-])cc5)c5ccc2[nH]5)C=C4)N=C3)cc1.[Na+].[Na+].[Na+].[Na+]`?
**A.** Activity (HeLa [1]): Non-toxic; IC50 (MIA PaCa-2 [2]): 8 µM; Activity (SiHa [3]): Non-toxic; IC50 (HeLa [4]): 25 µM; IC50 [5]: 13 µM; Activity (MDA-MB-231 [6]): Non-toxic; Activity (MDA-MB-231 [7]): Dose-dependent effect; Activity (HCT-116 [8]): Non-toxic; IC50 (SiHa [9]): 20 µM; Activity (MDA-MB-231 [10]): 65.8%; Activity (MDA-MB-231 [11]): 88.5%; IC50 (MCF7 [12]): 12 µM; Ratio IC50 (MDA-MB-231 [13]): 5; Activity (MDA-MB-231 [14]): Non-toxic; Activity [15]: Non-toxic; Activity (MDA-MB-231 [16]): 69.7%; Activity (MDA-MB-231 [17]): Dose-dependent effect; Activity (MDA-MB-231 [18]): 72%; IC50 [19]: 11 µM; Activity (MDA-MB-231 [20]): 91%; Activity (MCF7 [21]): Non-toxic; Activity (MDA-MB-231 [22]): 79.5%; Activity (MDA-MB-231 [23]): 83.9%; Activity (MDA-MB-231 [24]): Active; Activity (MDA-MB-231 [25]): 61.8%; IC50 (HCT-116 [26]): 8 µM; Activity [27]: Non-toxic; Activity (MIA PaCa-2 [28]): Non-toxic; Activity (MDA-MB-231 [29]): Non-toxic; IC50 (MDA-MB-231 [30]): 6 µM
